Source: ChEMBL document CHEMBL5113488, “Design, synthesis and antitumor activity study of a gemcitabine prodrug conjugated with a HDAC6 inhibitor” (Bioorg Med Chem Lett, 2022)
Activity calls are given as the source filed them. The calls are words filed in the database; no cut-off is given here.

Tests used:
[1] = system: MDA-MB-231; assay: Induction of DNA damage in human MDA-MB-231 cells assessed as increase in phospho-gamma-H2A.X expression level at 0.3 to 3 uM; assay type: functional, cell-based; conditions: dose 0.3-3 µM
[2] = system: MDA-MB-231; assay: Antiproliferative activity against human MDA-MB-231 cells assessed as inhibition of cell growth; assay type: functional, cell-based
[3] = system: MDA-MB-231; assay: Antiproliferative activity against human MDA-MB-231 cells assessed as inhibition of cell growth pretreated with hENT1 inhibitor, dipyridamole at 10 uM followed by compound addition; assay type: functional, cell-based
[4] = system: 4T1; assay: Antiproliferative activity against mouse 4T1 cells assessed as inhibition of cell growth; assay type: functional, cell-based
[5] = target: T1, Cytochrome P450 1A2 (Rattus norvegicus, UniProt P04799); assay: Inhibition of CYP1A2 in rat liver microsomes using phenacetin as substrate; assay type: ADME, Microsome
T1 sequence (P04799 whole entry): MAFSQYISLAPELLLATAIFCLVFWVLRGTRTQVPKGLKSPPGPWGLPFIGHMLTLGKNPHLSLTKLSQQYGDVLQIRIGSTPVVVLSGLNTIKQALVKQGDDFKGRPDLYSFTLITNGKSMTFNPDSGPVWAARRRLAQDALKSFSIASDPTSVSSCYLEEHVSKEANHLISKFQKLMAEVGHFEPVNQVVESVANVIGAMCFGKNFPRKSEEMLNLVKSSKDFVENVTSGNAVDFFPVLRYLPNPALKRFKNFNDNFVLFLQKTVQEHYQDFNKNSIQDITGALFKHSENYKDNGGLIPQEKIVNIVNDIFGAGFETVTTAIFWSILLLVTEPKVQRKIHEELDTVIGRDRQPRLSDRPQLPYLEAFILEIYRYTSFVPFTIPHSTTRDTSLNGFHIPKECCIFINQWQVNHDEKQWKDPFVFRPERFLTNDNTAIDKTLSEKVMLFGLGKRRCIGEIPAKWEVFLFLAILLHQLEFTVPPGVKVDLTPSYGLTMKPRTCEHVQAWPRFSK

[6] = Toxicity in mouse implanted with mouse 4T1 cells assessed as body weight loss at 5 to 10 mg/kg administered for 15 days; assay type: organism-based; conditions: 4t1, 360 h, dose 5-10 mg/kg, time 15 day
[7] = system: PANC-1; assay: Antiproliferative activity against human PANC-1 cells assessed as inhibition of cell growth; assay type: functional, cell-based
[8] = Toxicity in mouse implanted with mouse 4T1 cells assessed as pathological damage in heart at 5 to 10 mg/kg administered for 15 days by H and E staining based analysis; assay type: organism-based; conditions: 4t1, 360 h, dose 5-10 mg/kg, time 15 day
[9] = target: Cytochrome P450 2E1 (Rattus norvegicus, UniProt P05182); assay: Inhibition of CYP2E1 in rat liver microsomes using chlorzoxazone as substrate; assay type: ADME, Microsome
[10] = target: T2, Cytochrome P450 2C6 (Rattus norvegicus, UniProt P05178); assay: Inhibition of CYP2C6 in rat liver microsomes using diclofenac as substrate; assay type: ADME, Microsome
T2 sequence (P05178 whole entry): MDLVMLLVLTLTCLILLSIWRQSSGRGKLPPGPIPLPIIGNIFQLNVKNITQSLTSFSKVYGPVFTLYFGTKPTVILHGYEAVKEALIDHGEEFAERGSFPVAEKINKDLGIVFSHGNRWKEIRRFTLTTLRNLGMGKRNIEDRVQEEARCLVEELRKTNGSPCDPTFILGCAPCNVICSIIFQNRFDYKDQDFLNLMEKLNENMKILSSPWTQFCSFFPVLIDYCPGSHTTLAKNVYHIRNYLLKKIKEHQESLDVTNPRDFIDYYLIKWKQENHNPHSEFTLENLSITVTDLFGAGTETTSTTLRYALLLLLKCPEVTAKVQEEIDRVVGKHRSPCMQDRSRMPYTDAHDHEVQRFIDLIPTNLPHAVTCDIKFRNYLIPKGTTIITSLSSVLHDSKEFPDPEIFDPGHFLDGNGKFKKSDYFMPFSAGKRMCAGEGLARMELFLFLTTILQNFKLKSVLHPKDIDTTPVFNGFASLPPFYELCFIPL

[11] = system: SK-OV-3; assay: Antiproliferative activity against human SK-OV-3 cells assessed as inhibition of cell growth; assay type: functional, cell-based
[12] = Toxicity in mouse implanted with mouse 4T1 cells assessed as pathological damage in liver at 5 to 10 mg/kg administered for 15 days by H and E staining based analysis; assay type: organism-based; conditions: 4t1, 360 h, dose 5-10 mg/kg, time 15 day
[13] = system: MDA-MB-231; assay: Antiproliferative activity against human MDA-MB-231 cells assessed as inhibition of cell growth incubated in presence of 10 uM imatinib; assay type: functional, cell-based
[14] = target: T3, Cytochrome P450 3A2 (Rattus norvegicus, UniProt P05183); assay: Inhibition of CYP3A2 in rat liver microsomes using midazolam as substrate; assay type: ADME, Microsome
T3 sequence (P05183 whole entry): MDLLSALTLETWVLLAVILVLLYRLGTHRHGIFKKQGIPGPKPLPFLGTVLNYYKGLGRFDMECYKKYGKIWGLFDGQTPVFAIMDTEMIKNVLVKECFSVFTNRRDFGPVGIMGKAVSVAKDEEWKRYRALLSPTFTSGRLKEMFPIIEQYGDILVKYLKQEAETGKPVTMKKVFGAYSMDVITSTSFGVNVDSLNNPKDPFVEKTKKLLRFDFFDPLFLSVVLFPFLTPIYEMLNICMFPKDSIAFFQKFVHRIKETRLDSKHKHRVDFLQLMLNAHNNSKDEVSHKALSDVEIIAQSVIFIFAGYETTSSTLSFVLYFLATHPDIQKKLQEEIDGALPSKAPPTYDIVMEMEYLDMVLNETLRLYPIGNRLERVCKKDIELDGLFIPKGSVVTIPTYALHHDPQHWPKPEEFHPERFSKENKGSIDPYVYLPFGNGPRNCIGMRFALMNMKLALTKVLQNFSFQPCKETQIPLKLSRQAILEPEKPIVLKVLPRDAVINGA

[15] = system: A549; assay: Antiproliferative activity against human A549 cells assessed as inhibition of cell growth; assay type: functional, cell-based
[16] = system: 4T1; assay: Antitumor activity against mouse 4T1 cells implanted in mouse assessed as tumor growth inhibition at 10 mg/kg administered for 15 days relative to control; assay type: functional; conditions: 4T1, 360 h, time 15 day, read-out: TGI
[17] = system: HCT-116; assay: Antiproliferative activity against human HCT-116 cells assessed as inhibition of cell growth; assay type: functional, cell-based
[18] = Toxicity in mouse implanted with mouse 4T1 cells assessed as pathological damage in kidney at 5 to 10 mg/kg administered for 15 days by H and E staining based analysis; assay type: organism-based; conditions: 4t1, 360 h, dose 5-10 mg/kg, time 15 day
[19] = system: 4T1; assay: Antitumor activity against mouse 4T1 cells implanted in mouse assessed as tumor growth inhibition at 5 mg/kg administered for 15 days relative to control; assay type: functional; conditions: 4T1, 360 h, time 15 day, read-out: TGI
[20] = target: T4, Cytochrome P450 2D1 (Rattus norvegicus, UniProt P10633); assay: Inhibition of CYP2D1 in rat liver microsomes using dextromethorphan as substrate; assay type: ADME, Microsome
T4 sequence (P10633 whole entry): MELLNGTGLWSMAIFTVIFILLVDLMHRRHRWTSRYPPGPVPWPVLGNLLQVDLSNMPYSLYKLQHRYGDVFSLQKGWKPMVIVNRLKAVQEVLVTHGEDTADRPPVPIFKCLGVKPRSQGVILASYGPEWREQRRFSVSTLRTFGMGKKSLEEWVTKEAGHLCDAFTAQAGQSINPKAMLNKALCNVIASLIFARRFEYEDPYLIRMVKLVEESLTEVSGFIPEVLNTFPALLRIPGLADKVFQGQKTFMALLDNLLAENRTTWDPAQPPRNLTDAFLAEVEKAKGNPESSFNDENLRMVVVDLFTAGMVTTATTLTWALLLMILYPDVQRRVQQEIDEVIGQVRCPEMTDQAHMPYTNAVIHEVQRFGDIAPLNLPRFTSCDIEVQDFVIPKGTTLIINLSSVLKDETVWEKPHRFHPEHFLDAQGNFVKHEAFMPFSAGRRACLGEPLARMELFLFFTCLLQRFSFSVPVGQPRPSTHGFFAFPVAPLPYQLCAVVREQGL

[21] = system: HeLa; assay: Antiproliferative activity against human HeLa cells assessed as inhibition of cell growth; assay type: functional, cell-based
[22] = system: SGC-7901; assay: Antiproliferative activity against human SGC-7901 cells assessed as inhibition of cell growth; assay type: functional, cell-based
[23] = system: Huh-7; assay: Antiproliferative activity against human Huh-7 cells assessed as inhibition of cell growth; assay type: functional, cell-based
[24] = target: T3, Cytochrome P450 3A2; assay: Inhibition of CYP3A2-mediated metabolite formation in rat liver microsomes assessed as reduction in N-(1-((2R,4R,5R)-3,3-difluoro-4-hydroxy-5-(hydroxymethyl)tetrahydrofuran-2-yl)-2-oxo-1,2-dihydropyrimidin-4-yl)pentadecanamide metabolism; assay type: ADME, Microsome

Chain of Cytochrome P450 2E1 (P05182 whole entry): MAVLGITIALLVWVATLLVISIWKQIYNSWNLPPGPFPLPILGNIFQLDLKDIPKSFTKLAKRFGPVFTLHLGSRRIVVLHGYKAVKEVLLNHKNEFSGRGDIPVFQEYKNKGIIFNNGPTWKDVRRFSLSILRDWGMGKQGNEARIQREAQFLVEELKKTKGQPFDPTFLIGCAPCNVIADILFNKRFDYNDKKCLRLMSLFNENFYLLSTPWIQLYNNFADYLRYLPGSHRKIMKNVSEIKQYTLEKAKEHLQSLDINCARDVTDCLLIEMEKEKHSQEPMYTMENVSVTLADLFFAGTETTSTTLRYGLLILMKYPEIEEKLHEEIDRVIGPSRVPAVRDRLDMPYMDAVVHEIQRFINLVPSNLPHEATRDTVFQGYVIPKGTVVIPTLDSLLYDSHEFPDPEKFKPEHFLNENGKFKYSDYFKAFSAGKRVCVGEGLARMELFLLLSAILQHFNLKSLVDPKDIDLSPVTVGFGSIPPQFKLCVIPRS

SMILES | IC50 [2] | IC50 [3] | IC50 [4] | IC50 [7] | IC50 [11] | IC50 [13] | IC50 [15] | inhibition in vivo at 10 mg/kg [16] | IC50 [17] | IC50 [21] | IC50 [22] | IC50 [23] | further results
CCCCCCCCCCCCCCC(=O)Nc1ccn([C@@H]2O[C@H](CO)[C@@H](O)C2(F)F)c(=O)n1 | 0.14 µM | 0.17 µM | 0.66 µM | 1.08 µM | 0.62 µM | 0.072 µM | 0.14 µM | 83.8% | 0.3 µM | 0.43 µM | 3.7 µM | 0.12 µM | Activity [1]: Active; Ki [5]: 127 µM; Activity [6]: Non-Toxic; Activity [8]: Non-Toxic; Ki [9]: 196 µM; Ki [10]: 203 µM; Activity [12]: Non-Toxic; Ki [14]: 52.6 µM; Activity [18]: Non-Toxic; inhibition in vivo at 5 mg/kg [19]: 73.2%; Ki [20]: 179 µM
CC(=O)N1CCN(c2ccc(OCC3COC(Cn4ccnc4)(c4ccc(Cl)cc4Cl)O3)cc2)CC1 (stereo unspecified) [KETOCONAZOLE] |  |  |  |  |  |  |  |  |  |  |  |  | inhibition (INH) [24]: Active
Nc1ccn([C@@H]2O[C@H](CO)[C@@H](O)C2(F)F)c(=O)n1 [GEMCITABINE] | 2.01 µM | 7.21 µM | 7.17 µM | 1.34 µM | 0.44 µM | 0.818 µM | 0.38 µM | 58.7% | 3.05 µM | 1.99 µM | 9.32 µM | 0.74 µM | 
